Experimental data: PMC6688508 (Journal of medicinal chemistry, 2019)

Assays:
MOR [1] = molecular target: T1, MOR (Homo sapiens, UniProt P35372); conditions: in vitro; cited from earlier work
MOR [2] = molecular target: T1, MOR; conditions: in vitro; cited from earlier work; remark: listed apart in the source
[3] = Mouse pharmacokinetic study, plasma and brain; format: in vivo, male Swiss Albino mice; conditions: mice
[4] = 50 mg/kg intraperitoneal injection

T1 sequence (P35372 whole entry): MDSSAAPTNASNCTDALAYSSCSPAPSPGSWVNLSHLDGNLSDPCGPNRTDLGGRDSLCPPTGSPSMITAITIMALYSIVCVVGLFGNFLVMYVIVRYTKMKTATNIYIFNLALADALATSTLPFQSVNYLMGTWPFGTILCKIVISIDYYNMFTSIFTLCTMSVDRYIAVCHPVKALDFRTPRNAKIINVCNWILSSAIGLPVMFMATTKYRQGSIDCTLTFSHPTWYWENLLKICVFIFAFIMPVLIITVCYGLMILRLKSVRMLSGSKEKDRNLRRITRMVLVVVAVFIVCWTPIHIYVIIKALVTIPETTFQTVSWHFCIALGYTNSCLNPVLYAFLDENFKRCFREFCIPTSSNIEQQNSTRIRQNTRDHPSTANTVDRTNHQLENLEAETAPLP

| SMILES | EMAX, activation of G protein signaling (MOR [1]) [%] | EMAX, recruiting β-arrestin (MOR [2]) [%] | tolerability / clinical signs ([3]; 50 mg/kg intraperitoneal) | peak concentration in the brain [3, 4] | peak concentration in the plasma [3, 4] |
| --- | --- | --- | --- | --- | --- |
| COc1ccsc1CNCC[C@@]1(c2ccccn2)CCOC2(CCCC2)C1 [TRV130] | 84 | 15 | – | – | – |
| Nc1cc(Oc2nccc3occc23)ccc1-c1cccc2nccn12 [Compound 40, 5-(Furo[3,2-c]pyridin-4-yloxy)-2-(imidazo[1,2-a]pyridin-5-yl)-aniline] | – | – | well tolerated and no clinical signs were observed | approximately 100 μM | approximately 100 μM |
